In the Kinase Knowledgebase extract (Sharma et al. 2016):
pIC50, pKd: −log10 of the molar value.

biological target: CDK2 (UniProt P24941); assay: Enzyme Assay

SMILES | pIC50
O=C1Nc2ccc(Br)cc2C1=NNc1ccccc1 | < 5.00
CN1CCC(c2c(O)cc(O)c3c2O/C(=C\c2ccc([N+](=O)[O-])cc2)C3=O)CC1 | 6.51
CN1CCC(c2c(O)cc(O)c3c2O/C(=C\c2ccc(S(N)(=O)=O)cc2)C3=O)CC1 | 7.52
CN(C)S(=O)(=O)c1ccc(NN=C2C(=O)Nc3ccc(O)cc32)cc1 | 8.00
COc1ccc2c(c1)C(=NNc1ccccc1)C(=O)N2 | < 5.00
O=C1Nc2ccccc2C1=NNc1ccccc1 | < 5.00
CN1CCC(c2c(O)cc(O)c3c2O/C(=C\c2ccccc2Cl)C3=O)CC1 | 5.40
CN1CCC(c2c(O)cc(O)c3c2O/C(=C\c2ccccc2)C3=O)CC1 | 5.89

biological target: MAPK14 (UniProt Q16539); assay: Inhibition of MAPK14 Kinase Activity
Sequence (Q16539 whole entry, looked up): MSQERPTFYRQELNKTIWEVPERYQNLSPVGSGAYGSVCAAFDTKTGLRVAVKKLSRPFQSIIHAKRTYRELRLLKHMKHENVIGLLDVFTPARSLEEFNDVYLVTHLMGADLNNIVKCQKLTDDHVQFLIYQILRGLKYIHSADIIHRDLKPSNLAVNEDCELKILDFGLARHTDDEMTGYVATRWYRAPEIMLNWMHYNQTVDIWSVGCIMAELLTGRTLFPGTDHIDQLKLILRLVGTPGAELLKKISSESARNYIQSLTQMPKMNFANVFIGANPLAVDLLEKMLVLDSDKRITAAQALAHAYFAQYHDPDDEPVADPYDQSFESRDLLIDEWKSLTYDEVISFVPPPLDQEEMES

SMILES | pKd
CC1(c2cc(NC(=O)Nc3ccccc3)n(-c3ccccc3)n2)CCCCC1 | 7.66
Cc1cc(NC(=O)Nc2ccccc2)n(-c2ccccc2)n1 | < 5.15
CC(C)(C)c1cc(NC(=O)NCCc2ccccc2)n(-c2ccccc2)n1 | 6.59
CC(C)(C)c1cc(NC(=O)NCc2ccccc2)n(-c2ccccc2)n1 | 7.33
CC(C)(C)c1cc(NC(=O)Nc2ccc(Cl)cc2)n(-c2ccccc2)n1 | 8.10
CC(C)(C)c1cc(NC(=O)NC2Cc3ccccc3C2)n(-c2ccccc2)n1 | 7.85
Cc1ccc(-n2nc(C(C)(C)C)cc2NC(=O)Nc2ccccc2)cc1 | 8.52
COc1ccc(-n2nc(C(C)(C)C)cc2NC(=O)Nc2ccccc2)cc1 | 7.51
Cc1ccc(-n2nc(C(C)(C)C)cc2NC(=O)Nc2ccccc2F)cc1 | 7.85
CC(C)(C)c1cc(NC(=O)Nc2ccccc2)n(C2CCCCC2)n1 | 6.30
CC(C)(C)c1cc(NC(=O)Nc2cccnc2)n(-c2ccccc2)n1 | 6.38
CC(C)(C)c1cc(NC(=O)Nc2ccccc2)n(-c2ccccc2)n1 | 7.89
Cc1ccc(-n2nc(C(C)(C)C)cc2NC(=O)Nc2ccccc2)cc1C | 8.40
CC1(c2cc(NC(=O)Nc3ccccc3)n(-c3ccccc3)n2)CCOCC1 | 6.55
CC(C)(C)c1cc(NC(=O)Nc2ccccn2)n(-c2ccccc2)n1 | 6.40
CC(C)(C)c1cc(NC(=O)Nc2cccc(N)c2)n(-c2ccccc2)n1 | 7.00
CC(C)(c1ccccc1)c1cc(NC(=O)Nc2ccccc2)n(-c2ccccc2)n1 | 6.12

SMILES | pKd
CC(C)(C)c1cc(NC(=O)NC2CCCCC2)n(-c2ccccc2)n1 | 6.89
CC(C)(C)c1cc(NC(=O)Nc2ccccc2)n(-c2ccc(N)cc2)n1 | 8.15
COc1cccc(-n2nc(C(C)(C)C)cc2NC(=O)Nc2ccccc2)c1 | 7.72
Cc1cccc(-n2nc(C(C)(C)C)cc2NC(=O)Nc2ccccc2)c1 | 8.70
CC(C)(C)c1cc(NC(=O)Nc2ccccc2)n(-c2ccc3ccccc3c2)n1 | 8.10
CC(C)(C)c1cc(NC(=O)Nc2ccncc2)n(-c2ccccc2)n1 | 5.92
Cc1ccccc1-n1nc(C(C)(C)C)cc1NC(=O)Nc1ccccc1 | 6.70
O=C(Nc1ccccc1)Nc1cc(C2CCCCC2)nn1-c1ccccc1 | < 6.40
CC(C)(C)c1cc(NC(N)=O)n(-c2ccccc2)n1 | < 5.15
CC(C)(C)c1cc(NC(=O)Nc2ccccc2)n(-c2ccncc2)n1 | 7.68
CC(C)c1cc(NC(=O)Nc2ccccc2)n(-c2ccccc2)n1 | 6.48
CC(C)(C)c1cc(NC(=O)Nc2ccc(N)cc2)n(-c2ccccc2)n1 | 6.50
Cc1ccc(-n2nc(C(C)(C)C)cc2NC(=O)Nc2cccc3ccccc23)cc1 | 9.00
CC(C)(C)c1cc(NC(=O)Nc2cccc3ccccc23)n(-c2ccccc2)n1 | 8.30
CCC(C)(C)c1cc(NC(=O)Nc2ccccc2)n(-c2ccccc2)n1 | 7.92
COCC(C)(C)c1cc(NC(=O)Nc2ccccc2)n(-c2ccccc2)n1 | 5.85
Cc1cccc(NC(=O)Nc2cc(C(C)(C)C)nn2-c2ccccc2)c1C | 8.52
